Reference: patent publication US10420819B2 (Extend Biosciences, Inc., priority 2014, dated 2019)

How the values were obtained:
blood glucose levels = assay: Blood glucose lowering pharmacodynamics in rats (Amplex Red Glucose/Glucose Oxidase Assay); assay type: in vivo; conditions: intravenous administration (FIG. 6)
Protocol: Blood glucose levels were determined in rats injected with free glucose and the conjugates using the Amplex Red Glucose/Glucose Oxidase Assay Kit (Invitrogen, Carlsbad, Calif., Cat. No. A22189).

[1] = rat

VitD-(25)-PEG2K-insulin: 2 KDa PEG scaffold on carbon 25 of vitamin D, carrier conjugated to lysine 29 on the insulin B-chain
duration of stably reduced blood glucose levels (blood glucose levels): approximately eight | in vivo half life [1]: improved the in vivo half life

20K-PEG-insulin: 20 kD PEG-NHS conjugated to human insulin, one 20 kD PEG; benchmark therapeutic (see EP2288375)
blood glucose lowering ability in vivo (blood glucose levels): did not display significant glucose lowering ability for an extended time | in vivo half life [1]: improved the in vivo half life
